# Source: patent publication US20240158446A1, “CYCLIC COMPOUND HAVING SELECTIVE INHIBITORY ACTION ON KRAS OVER HRAS AND NRAS” (CHUGAI SEIYAKU KABUSHIKI KAISHA, priority 2021, published 2024)
# Where two headings read alike, the source gives them in different places. Where a SMILES comes first, the peptide text is derived from it. Bridges are numbered along the chain shown (N, C = ends). [ ]: non-standard residue; d: D form. The star is where a group is joined. hPhe(3-Cl-4-CF3) = N[C@@H](CCc1ccc(C(F)(F)F)c(Cl)c1)C(=O)O; NPrPhe(4-CF3) = CCCN[C@@H](Cc1ccc(C(F)(F)F)cc1)C(=O)O; Piperazinyl(4-(3-oxetanyl)) = C1OCC1N1CCN(*)CC1; NMeGly(cPent) = CN[C@H](C(=O)O)C1CCCC1; Pro(4,4-F2) = O=C(O)[C@@H]1CC(F)(F)CN1; NMeD = CN[C@@H](CC(=O)O)C(=O)O; NMeL = CN[C@@H](CC(C)C)C(=O)O; Morpholide = C1CN(*)CCO1; NMeA = CN[C@@H](C)C(=O)O; Ac5c = NC1(C(=O)O)CCCC1; Aze = O=C(O)[C@@H]1CCN1; Sar = CNCC(=O)O
# Legend:
# [1] = target: GDP-bound HRAS wild-type protein (Homo sapiens, UniProt P01112); experiment: Binding to HRAS by surface plasmon resonance (SPR), Single Cycle Kinetics; conditions: for HRAS/KRAS (ratio of KD value for HRAS to KD value for KRAS): SPR, GDP-bound HRAS wild-type protein vs GDP-bound KRAS wild-type protein; for HRAS/KRAS (ratio of KD value with respect to GDP-bound HRAS wild-type protein to KD value with respect to KRAS): SPR KD ratio HRAS/KRAS, class symbols
# Sequence of GDP-bound HRAS wild-type protein (P01112 whole entry): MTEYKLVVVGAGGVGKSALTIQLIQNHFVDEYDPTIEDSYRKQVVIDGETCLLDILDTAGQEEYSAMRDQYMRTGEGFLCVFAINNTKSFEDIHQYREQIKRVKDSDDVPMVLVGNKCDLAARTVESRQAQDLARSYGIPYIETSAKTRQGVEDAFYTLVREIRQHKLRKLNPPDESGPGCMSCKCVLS
# [2] = target: GDP-bound KRAS wild-type protein (Homo sapiens, UniProt P01116); experiment: Binding to KRAS by surface plasmon resonance (SPR), Single Cycle Kinetics; conditions: GDP-bound KRAS wild-type protein, read-out: KRAS KD
# Sequence of GDP-bound KRAS wild-type protein (P01116 whole entry): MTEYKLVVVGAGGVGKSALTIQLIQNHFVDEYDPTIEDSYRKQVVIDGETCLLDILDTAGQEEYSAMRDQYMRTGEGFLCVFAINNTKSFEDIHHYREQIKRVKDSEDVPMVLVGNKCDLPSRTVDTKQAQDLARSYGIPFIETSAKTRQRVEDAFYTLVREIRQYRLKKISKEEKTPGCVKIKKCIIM
# [3] = target: GDP-bound NRAS wild-type protein (Homo sapiens, UniProt P01111); experiment: Binding to NRAS by surface plasmon resonance (SPR), Single Cycle Kinetics; conditions: for NRAS/KRAS (ratio of KD value for NRAS to KD value for KRAS): SPR, GDP-bound NRAS wild-type protein vs GDP-bound KRAS wild-type protein; for NRAS/KRAS (ratio of KD value with respect to GDP-bound NRAS wild-type protein to KD value with respect to KRAS): SPR KD ratio NRAS/KRAS, class symbols
# Sequence of GDP-bound NRAS wild-type protein (P01111 whole entry): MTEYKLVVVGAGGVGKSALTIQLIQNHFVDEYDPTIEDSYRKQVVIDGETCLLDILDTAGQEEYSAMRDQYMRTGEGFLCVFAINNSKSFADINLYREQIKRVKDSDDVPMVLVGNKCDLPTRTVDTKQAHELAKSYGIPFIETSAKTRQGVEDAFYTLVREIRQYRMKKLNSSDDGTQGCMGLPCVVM
# [4] = SPR Single Cycle Kinetics, 1:1 binding model
compound,measurement,setting,value
CC[C@H](C)[C@@H]1NC(=O)[C@H](COC)N(C)C(=O)C[C@@H](C(=O)N2CCOCC2)N(C)C(=O)[C@H](C2CCCC2)N(C)C(=O)C2(CCC2)NC(=O)[C@@H]2CCN2C(=O)[C@H](CCc2cc(F)c(C(F)(F)F)c(F)c2)NC(=O)CN(C)C(=O)[C@H](Cc2ccc(C(F)(F)F)cc2)N2CCCCC[C@@H](C2=O)N(C)C(=O)CN(C)C1=O [PP0840],HRAS/KRAS (ratio of KD value for HRAS to KD value for KRAS),[1],B (a compound having 3 or more and less than 10 is denoted as B)
same,Kd,"[2]; SPR, Single Cycle Kinetics",5 nM
same,NRAS/KRAS (ratio of KD value for NRAS to KD value for KRAS),[3],B (a compound having 3 or more and less than 10 is denoted as B)
CCCN1C(=O)[C@@H]2CCN2C(=O)[C@H](C)N(C)C(=O)[C@H]([C@@H](C)CC)NC(=O)[C@H](CC(C)C)N(C)C(=O)C[C@@H](C(=O)N2CCN(C3COC3)CC2)N(C)C(=O)[C@H](C2CCCC2)N(C)C(=O)C2(CCCC2)NC(=O)[C@@H]2CCCN2C(=O)[C@H](CCc2ccc(C(F)(F)F)c(Cl)c2)NC(=O)CN(C)C(=O)[C@@H]1Cc1ccc(C(F)(F)F)cc1 [PP0184] ([NMeL]I[NMeA][Aze][NPrPhe(4-CF3)][Sar][hPhe(3-Cl-4-CF3)]P[Ac5c][NMeGly(cPent)][NMeD]-{Piperazinyl(4-(3-oxetanyl))}; lactam N-11),HRAS/KRAS (ratio of KD value for HRAS to KD value for KRAS),[1],B (a compound having 3 or more and less than 10 is denoted as B)
same,Kd,[2]; [4],0.32 nM
same,NRAS/KRAS (ratio of KD value for NRAS to KD value for KRAS),[3],C (A compound having a KD ratio of 0.1 or more and less than 3 is denoted as C)
CCC[C@H]1C(=O)N[C@@H]([C@@H](C)CC)C(=O)N(C)CC(=O)N(C)[C@H]2C/C=C\CCN(C2=O)[C@@H](Cc2ccc(C(F)(F)F)cc2)C(=O)N(C)CC(=O)N[C@@H](CCc2ccc3c(C)cn(C)c3c2)C(=O)N2C[C@H](OCC)C[C@H]2C(=O)NC2(CC(C)(C)C2)C(=O)N(C)[C@@H](C(CC)CC)C(=O)N(C)[C@H](C(=O)N(C)C)CC(=O)N1C [PP2908],HRAS/KRAS (ratio of KD value with respect to GDP-bound HRAS wild-type protein to KD value with respect to KRAS),[1],A (a compound having 10 or more and less than 20 is denoted as A)
same,Kd,[2]; [4],1.5 nM
same,NRAS/KRAS (ratio of KD value with respect to GDP-bound NRAS wild-type protein to KD value with respect to KRAS),[3],AA (a compound having 20 or more is denoted as AA)
"CCCN1C(=O)CN(C)C(=O)[C@@H]2CCN2C(=O)[C@H]([C@@H](C)CC)NC(=O)[C@H](CC(C)C)N(C)C(=O)C[C@@H](C(=O)N2CCOCC2)N(C)C(=O)[C@H](C2CCCC2)N(C)C(=O)C2(CCCC2)NC(=O)[C@@H]2CC(F)(F)CN2C(=O)[C@H](CCc2ccc(C(F)(F)F)c(Cl)c2)NC(=O)CN(C)C(=O)[C@@H]1Cc1ccc(C(F)(F)F)cc1 [PP0403] ([NMeL]I[Aze][Sar][NPrPhe(4-CF3)][Sar][hPhe(3-Cl-4-CF3)][Pro(4,4-F2)][Ac5c][NMeGly(cPent)][NMeD]-Morpholide; lactam N-11)",HRAS/KRAS (ratio of KD value for HRAS to KD value for KRAS),[1],B (a compound having 3 or more and less than 10 is denoted as B)
same,Kd,[2]; [4],0.83 nM
same,NRAS/KRAS (ratio of KD value for NRAS to KD value for KRAS),[3],B (a compound having 3 or more and less than 10 is denoted as B)
CCC(CC)[C@H]1C(=O)N(C)[C@H](C(=O)N(C)C)CC(=O)N(C)[C@@H](COC)C(=O)N[C@@H]([C@@H](C)CC)C(=O)N(C)CC(=O)N(C)[C@H]2C/C=C\CCN(C2=O)[C@@H](Cc2ccc(C(F)(F)F)cc2)C(=O)N(C)CC(=O)N[C@@H](CCc2cc(F)c(C(F)(F)F)c(F)c2)C(=O)N2CC3(CC3)C[C@H]2C(=O)NC2(CC(C)(C)C2)C(=O)N1C [PP2961],HRAS/KRAS (ratio of KD value with respect to GDP-bound HRAS wild-type protein to KD value with respect to KRAS),[1],A (a compound having 10 or more and less than 20 is denoted as A)
same,Kd,[2]; [4],0.36 nM
same,NRAS/KRAS (ratio of KD value with respect to GDP-bound NRAS wild-type protein to KD value with respect to KRAS),[3],AA (a compound having 20 or more is denoted as AA)
